{"source": "ChEMBL document CHEMBL1201862", "about": "“PubChem BioAssay data set” (2004)", "key": {"Fatty acid synthase [1]": {"target": "T1, Fatty acid synthase (Homo sapiens, UniProt P49327)", "T1 sequence (P49327 whole entry, the tested form may be a part)": "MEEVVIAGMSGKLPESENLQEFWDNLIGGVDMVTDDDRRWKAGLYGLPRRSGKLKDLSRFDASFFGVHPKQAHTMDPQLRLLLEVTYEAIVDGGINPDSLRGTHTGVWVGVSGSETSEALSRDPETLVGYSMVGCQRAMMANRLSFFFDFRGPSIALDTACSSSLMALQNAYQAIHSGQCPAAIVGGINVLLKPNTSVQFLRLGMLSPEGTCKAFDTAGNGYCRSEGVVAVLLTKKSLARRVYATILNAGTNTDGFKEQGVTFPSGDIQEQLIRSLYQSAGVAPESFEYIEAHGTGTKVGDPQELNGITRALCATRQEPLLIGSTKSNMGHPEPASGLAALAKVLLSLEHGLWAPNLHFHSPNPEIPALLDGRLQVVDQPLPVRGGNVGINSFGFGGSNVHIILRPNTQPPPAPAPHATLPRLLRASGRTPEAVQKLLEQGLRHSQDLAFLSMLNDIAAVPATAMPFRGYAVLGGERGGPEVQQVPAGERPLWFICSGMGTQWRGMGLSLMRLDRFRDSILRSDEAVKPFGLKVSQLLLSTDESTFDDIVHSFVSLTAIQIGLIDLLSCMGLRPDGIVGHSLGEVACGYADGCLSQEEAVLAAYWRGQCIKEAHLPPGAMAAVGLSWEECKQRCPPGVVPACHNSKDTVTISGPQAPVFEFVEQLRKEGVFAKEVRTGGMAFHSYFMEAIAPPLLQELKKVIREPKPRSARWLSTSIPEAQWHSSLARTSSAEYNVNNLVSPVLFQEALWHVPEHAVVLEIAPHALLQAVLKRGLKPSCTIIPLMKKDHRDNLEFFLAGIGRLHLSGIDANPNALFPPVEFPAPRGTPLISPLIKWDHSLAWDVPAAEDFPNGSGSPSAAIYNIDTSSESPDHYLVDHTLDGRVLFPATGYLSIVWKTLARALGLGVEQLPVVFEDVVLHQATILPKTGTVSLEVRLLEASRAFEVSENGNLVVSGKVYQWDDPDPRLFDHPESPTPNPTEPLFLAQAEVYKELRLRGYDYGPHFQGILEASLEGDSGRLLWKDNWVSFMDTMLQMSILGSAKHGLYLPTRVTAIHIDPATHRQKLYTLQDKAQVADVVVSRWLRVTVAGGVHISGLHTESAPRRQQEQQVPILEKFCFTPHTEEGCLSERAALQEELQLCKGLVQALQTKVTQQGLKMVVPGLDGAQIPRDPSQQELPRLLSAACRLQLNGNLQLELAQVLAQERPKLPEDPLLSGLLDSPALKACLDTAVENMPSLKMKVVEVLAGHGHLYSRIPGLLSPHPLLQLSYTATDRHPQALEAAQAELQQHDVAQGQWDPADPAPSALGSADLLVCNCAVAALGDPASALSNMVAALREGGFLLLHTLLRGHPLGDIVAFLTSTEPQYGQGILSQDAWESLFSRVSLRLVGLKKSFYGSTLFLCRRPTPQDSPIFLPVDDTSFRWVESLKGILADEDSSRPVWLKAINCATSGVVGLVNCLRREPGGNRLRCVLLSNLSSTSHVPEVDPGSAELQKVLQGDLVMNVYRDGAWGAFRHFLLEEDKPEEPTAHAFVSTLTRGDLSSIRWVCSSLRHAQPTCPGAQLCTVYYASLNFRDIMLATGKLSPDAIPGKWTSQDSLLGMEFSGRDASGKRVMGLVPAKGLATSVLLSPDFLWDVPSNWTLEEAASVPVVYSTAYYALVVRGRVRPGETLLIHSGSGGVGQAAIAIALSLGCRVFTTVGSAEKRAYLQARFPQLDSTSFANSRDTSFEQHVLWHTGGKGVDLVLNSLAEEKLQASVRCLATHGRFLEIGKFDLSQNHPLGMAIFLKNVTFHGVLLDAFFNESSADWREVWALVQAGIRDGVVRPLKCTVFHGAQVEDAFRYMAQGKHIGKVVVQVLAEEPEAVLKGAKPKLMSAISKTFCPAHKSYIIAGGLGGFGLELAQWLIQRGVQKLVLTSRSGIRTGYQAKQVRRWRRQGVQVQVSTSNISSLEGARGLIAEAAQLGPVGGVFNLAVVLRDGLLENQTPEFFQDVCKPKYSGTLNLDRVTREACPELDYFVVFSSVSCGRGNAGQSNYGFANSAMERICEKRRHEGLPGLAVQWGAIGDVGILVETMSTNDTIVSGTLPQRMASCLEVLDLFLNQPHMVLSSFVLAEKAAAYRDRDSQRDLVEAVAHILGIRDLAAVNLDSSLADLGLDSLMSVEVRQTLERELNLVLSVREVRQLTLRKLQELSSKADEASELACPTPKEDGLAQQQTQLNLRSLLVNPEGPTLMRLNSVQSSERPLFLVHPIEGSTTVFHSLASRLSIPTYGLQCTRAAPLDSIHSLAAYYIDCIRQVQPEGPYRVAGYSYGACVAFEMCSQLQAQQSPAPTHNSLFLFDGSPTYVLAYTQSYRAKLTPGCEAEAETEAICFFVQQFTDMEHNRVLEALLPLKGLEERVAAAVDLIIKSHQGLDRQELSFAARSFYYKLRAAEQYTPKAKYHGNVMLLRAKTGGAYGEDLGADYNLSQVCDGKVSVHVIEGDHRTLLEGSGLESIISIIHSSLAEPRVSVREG", "test": "FAS thioesterase domain inhibitors, dose response, biochemical, endpoint fluorescence intensity, uHTS hits (AID 624327);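 note: fluorescence from hydrolysis of an O-methyl fluorescein acyl ester substrate by the enzyme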", "format": "functional"}, "Fatty acid synthase [2]": {"target": "T1, Fatty acid synthase", "test": "FAS thioesterase domain inhibitors, dose response, biochemical, kinetic fluorescence intensity (AID 624326);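 note: rate of fluorescence rise from hydrolysis of a fluorogenic O-methyl fluorescein ester substrate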", "format": "functional"}, "[3]": {"target": "T2, Polyadenylate-binding protein 1 (Homo sapiens, UniProt P11940)", "T2 sequence (P11940 whole entry)": "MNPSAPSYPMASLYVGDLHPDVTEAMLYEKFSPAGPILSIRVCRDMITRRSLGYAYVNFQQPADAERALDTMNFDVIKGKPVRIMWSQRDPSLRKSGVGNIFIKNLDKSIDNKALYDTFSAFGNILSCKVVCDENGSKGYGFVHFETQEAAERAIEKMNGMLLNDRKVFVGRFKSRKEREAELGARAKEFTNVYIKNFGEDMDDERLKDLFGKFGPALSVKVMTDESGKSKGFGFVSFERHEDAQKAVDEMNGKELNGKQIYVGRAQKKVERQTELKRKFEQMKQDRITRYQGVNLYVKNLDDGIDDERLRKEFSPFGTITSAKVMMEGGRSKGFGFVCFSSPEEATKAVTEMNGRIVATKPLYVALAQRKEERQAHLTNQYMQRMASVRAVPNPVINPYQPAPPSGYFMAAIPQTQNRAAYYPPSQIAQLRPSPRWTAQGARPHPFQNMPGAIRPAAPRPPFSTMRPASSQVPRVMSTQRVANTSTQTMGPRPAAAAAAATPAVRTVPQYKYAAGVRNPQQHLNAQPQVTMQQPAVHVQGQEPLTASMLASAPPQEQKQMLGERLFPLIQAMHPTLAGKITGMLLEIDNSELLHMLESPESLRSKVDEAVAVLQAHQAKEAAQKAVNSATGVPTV", "test": "PABP1 MLLE–PAM2 binding inhibitor potency, dose response, biochemical, fluorescence polarization, FITC-PAM2 peptide (AID 602259)", "format": "functional", "details": "read-out: IC50_Mean"}, "[4]": {"target": "T2, Polyadenylate-binding protein 1", "test": "PABP1 MLLE–PAM2 interaction inhibitors, dose response, miRNA deadenylation inhibitor project, biochemical, fluorescence polarization, Cy5-PAM2 peptide, secondary (AID 602260)", "format": "functional", "details": "read-out: IC50_Mean"}, "[5]": {"target": "Induced myeloid leukemia cell differentiation protein Mcl-1 (Homo sapiens, UniProt Q07820)", "sequence (Q07820 whole entry)": "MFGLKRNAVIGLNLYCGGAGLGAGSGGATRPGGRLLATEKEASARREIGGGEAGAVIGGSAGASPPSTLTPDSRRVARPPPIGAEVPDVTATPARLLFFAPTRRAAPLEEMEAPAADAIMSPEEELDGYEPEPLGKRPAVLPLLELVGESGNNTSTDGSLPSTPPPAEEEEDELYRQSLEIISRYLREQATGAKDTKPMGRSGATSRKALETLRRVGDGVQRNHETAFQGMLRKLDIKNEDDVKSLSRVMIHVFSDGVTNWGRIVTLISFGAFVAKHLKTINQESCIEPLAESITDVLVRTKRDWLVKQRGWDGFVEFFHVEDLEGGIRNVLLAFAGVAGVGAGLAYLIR", "format": "functional"}, "[6]": {"target": "T3, High affinity choline transporter 1 (Homo sapiens, UniProt Q9GZV3)", "T3 sequence (Q9GZV3 whole entry)": "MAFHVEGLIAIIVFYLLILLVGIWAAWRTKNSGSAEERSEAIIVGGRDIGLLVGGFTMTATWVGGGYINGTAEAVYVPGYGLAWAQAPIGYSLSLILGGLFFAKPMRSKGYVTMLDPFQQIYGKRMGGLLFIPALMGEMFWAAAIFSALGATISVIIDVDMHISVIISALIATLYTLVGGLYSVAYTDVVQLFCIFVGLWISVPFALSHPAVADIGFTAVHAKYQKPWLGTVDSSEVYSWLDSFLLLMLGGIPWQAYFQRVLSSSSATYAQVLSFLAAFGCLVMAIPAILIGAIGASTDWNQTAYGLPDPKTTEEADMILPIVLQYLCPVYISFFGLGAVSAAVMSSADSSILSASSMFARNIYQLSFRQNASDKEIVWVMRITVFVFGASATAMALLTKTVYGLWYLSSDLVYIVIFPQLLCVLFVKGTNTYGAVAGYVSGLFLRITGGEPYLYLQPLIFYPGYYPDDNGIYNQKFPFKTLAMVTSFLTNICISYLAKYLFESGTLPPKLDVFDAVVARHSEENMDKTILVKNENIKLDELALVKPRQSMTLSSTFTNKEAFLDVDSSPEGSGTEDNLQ", "test": "CHT inhibitors, dose response, cell-based, 5-point CRC, membrane potential dye (AID 504840)", "format": "functional"}, "[7]": {"target": "T4, Rac GTPase-activating protein 1 (Homo sapiens, UniProt Q9H0H5)", "T4 sequence (Q9H0H5 whole entry)": "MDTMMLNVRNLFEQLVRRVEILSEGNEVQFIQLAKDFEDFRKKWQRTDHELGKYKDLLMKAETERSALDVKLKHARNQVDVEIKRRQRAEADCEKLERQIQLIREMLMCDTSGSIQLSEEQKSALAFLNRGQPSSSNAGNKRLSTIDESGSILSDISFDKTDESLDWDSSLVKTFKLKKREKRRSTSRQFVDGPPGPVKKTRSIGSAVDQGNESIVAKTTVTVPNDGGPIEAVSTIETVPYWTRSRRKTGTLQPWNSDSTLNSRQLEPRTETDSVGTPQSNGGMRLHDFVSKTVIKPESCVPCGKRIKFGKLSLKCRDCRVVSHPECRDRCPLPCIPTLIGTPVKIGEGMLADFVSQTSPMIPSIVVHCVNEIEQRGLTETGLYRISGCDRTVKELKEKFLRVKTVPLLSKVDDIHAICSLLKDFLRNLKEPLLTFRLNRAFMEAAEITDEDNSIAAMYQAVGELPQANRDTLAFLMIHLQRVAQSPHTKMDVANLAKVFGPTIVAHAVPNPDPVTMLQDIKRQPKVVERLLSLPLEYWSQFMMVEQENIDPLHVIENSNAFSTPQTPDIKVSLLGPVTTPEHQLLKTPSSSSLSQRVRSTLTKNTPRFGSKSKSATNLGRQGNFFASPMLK", "test": "MgcRacGAP GTPase-activating activity inhibitors, confirmation, biochemical, ADP Hunter fluorescence, primary and confirmatory (AID 624330)", "format": "functional"}, "[8]": {"target": "T5, Mannose-6-phosphate isomerase (Homo sapiens, UniProt P34949)", "T5 sequence (P34949 whole entry)": "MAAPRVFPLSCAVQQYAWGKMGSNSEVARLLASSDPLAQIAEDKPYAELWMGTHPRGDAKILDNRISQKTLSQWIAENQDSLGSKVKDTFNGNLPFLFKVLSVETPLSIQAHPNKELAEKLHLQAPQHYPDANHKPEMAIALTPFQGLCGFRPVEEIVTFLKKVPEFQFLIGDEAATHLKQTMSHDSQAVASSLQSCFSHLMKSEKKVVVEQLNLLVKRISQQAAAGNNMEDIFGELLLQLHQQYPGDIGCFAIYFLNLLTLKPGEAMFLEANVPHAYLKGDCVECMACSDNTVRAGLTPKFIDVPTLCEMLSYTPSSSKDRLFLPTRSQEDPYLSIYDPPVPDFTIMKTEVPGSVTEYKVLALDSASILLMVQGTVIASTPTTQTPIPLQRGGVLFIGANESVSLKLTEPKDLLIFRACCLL", "test": "human PMI inhibitors, high substrate, primary screen, biochemical, fluorescence intensity, high mannose 6-phosphate (AID 1220)"}, "[9]": {"target": "T6, Short transient receptor potential channel 4 (Mus musculus, UniProt Q9QUQ5)", "T6 sequence (Q9QUQ5 whole entry)": "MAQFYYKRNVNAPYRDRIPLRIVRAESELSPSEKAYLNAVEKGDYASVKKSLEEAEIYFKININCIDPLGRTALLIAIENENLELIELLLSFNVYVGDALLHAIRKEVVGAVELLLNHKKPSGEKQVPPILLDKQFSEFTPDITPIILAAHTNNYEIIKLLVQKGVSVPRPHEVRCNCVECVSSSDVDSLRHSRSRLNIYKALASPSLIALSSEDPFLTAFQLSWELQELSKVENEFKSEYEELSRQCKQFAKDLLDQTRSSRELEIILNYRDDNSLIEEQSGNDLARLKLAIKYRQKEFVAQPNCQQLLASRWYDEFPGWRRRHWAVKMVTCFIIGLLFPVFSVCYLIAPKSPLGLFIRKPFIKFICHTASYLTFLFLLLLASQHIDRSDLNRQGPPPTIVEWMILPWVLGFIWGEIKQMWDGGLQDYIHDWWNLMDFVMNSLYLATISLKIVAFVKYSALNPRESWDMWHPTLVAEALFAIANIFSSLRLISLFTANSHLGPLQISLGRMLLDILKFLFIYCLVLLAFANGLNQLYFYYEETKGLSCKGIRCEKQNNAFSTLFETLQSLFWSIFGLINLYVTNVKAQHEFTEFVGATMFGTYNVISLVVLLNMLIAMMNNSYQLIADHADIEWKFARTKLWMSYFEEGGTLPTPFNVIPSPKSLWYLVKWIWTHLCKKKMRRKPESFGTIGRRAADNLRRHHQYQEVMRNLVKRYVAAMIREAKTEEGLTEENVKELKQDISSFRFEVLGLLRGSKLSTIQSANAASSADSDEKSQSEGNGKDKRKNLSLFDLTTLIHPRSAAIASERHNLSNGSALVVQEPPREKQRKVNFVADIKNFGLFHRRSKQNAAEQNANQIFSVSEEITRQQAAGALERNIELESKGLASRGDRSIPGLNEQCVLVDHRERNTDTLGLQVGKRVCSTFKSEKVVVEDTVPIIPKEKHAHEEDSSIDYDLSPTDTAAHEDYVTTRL", "test": "mouse TRPC4 channel inhibitors, dose response, cell-based, HEK293 TRPC4/mu-opioid, Fluo-4 calcium (AID 434942)", "format": "functional"}, "[10]": {"target": "T7, Carboxy-terminal domain RNA polymerase II polypeptide A small phosphatase 1 (Homo sapiens, UniProt Q9GZU7)", "T7 sequence (Q9GZU7 whole entry)": "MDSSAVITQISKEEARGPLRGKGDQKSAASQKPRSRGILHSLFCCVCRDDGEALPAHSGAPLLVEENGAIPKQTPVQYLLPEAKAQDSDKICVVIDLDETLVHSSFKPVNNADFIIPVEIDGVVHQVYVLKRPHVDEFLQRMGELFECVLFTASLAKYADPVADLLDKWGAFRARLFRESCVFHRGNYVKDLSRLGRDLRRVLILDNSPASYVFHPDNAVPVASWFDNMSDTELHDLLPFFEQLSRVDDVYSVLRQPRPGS", "test": "inhibitors of CTDSP1, concentration-response testing, biochemical assay, absorbance-based, actives from ultra-high-throughput screening (AID 540297)", "format": "functional"}, "BJ [11]": {"system": "BJ", "test": "cytotoxicity toward BJ-TERT-LT-ST fibroblasts, dose response, cell-based, RAS-independent, luminescence (AID 1935);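 note: BJ fibroblasts immortalized with TERT plus LT and ST oncogenes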", "format": "functional", "details": "Homo sapiens"}, "[12]": {"test": "Shn3 3'UTR reporter inhibitors, dose response, cell-based, Clone20 osteoblasts, firefly luciferase, cherry-picked (AID 624132)", "format": "functional"}, "[13]": {"test": "HepG2 cell cytotoxicity, dose response, cytotoxicity control for Shn3 inhibitor project, CellTiter-Glo, cherry-picked (AID 624134)", "format": "functional, cell-based"}, "BJ [14]": {"system": "BJ", "test": "cytotoxicity toward BJ-TERT fibroblasts, dose response, cell-based, RAS-independent, luminescence (AID 1933)", "format": "functional", "details": "Homo sapiens"}, "BJ [15]": {"system": "BJ", "test": "cells", "format": "functional, cell-based", "details": "Homo sapiens"}, "[16]": {"test": "cytotoxicity toward DRD oncogenic fibroblasts, dose response, cell-based, non-viral oncogenic, luminescence (AID 1934)", "format": "functional", "details": "Homo sapiens"}, "BJ [17]": {"system": "BJ", "test": "cytotoxicity toward Ras-transformed BJeLR fibroblasts, dose response, cell-based, alamar blue fluorescence, cherrypicked samples (AID 2631)", "format": "functional", "details": "Homo sapiens"}}, "note": "Calls of active or inactive are those of the source."}
{"smiles": "COc1cc(C(=O)COC(=O)c2cc([N+](=O)[O-])ccc2N2CCOCC2)ccc1OC(F)F", "values": [{"measurement": "IC50", "setting": "Fatty acid synthase [1]", "value": "10.3 µM (active)"}, {"measurement": "IC50", "setting": "Fatty acid synthase [2]", "value": "10.1 µM (active)"}]}
{"smiles": "O=C(Nc1cccc(Cl)c1)c1cc([N+](=O)[O-])ccc1N1CCN(CCO)CC1", "values": [{"measurement": "IC50", "setting": "Fatty acid synthase [1]", "value": "6.61 µM (active)"}, {"measurement": "IC50", "setting": "Fatty acid synthase [2]", "value": "2.72 µM (active)"}]}
{"smiles": "CC(C)(CCC(=S)N1CCOCC1)C1CCCCC1", "values": [{"measurement": "IC50", "setting": "[3]", "value": "> 66 µM (inactive)"}, {"measurement": "IC50", "setting": "[4]", "value": "> 66 µM (inactive)"}]}
{"smiles": "COc1ccc(N2CCN(C(=O)CSc3ccc([N+](=O)[O-])cc3)CC2)cc1", "values": [{"measurement": "IC50", "setting": "Fatty acid synthase [1]", "value": "21.1 µM (inactive)"}, {"measurement": "IC50", "setting": "Fatty acid synthase [2]", "value": "12.9 µM (active)"}]}
{"smiles": "CC(=O)N1CCc2cc(S(=O)(=O)NC(Cc3ccccc3)C(=O)NC3CCCCCC3)ccc21", "note": "(stereo not given)", "values": [{"measurement": "IC50", "setting": "[5]", "value": "4.58 µM (not active)"}]}
{"smiles": "Cc1ccc(NC(S)=NNC(=O)c2cccc([N+](=O)[O-])c2)cc1Cl", "values": [{"measurement": "IC50", "setting": "[6]", "value": "12.6 µM (active)"}]}
{"smiles": "CCOC(=O)C1CCCN(c2ccc(NC(=O)c3snc4c(=O)[nH]c(C)nc34)cc2)C1", "note": "(stereo not given)", "values": [{"measurement": "IC50", "setting": "[5]", "value": "5.25 µM (active)"}]}
{"smiles": "CC(=O)Nc1ccc(-c2csc(NC(=O)C3CC(=O)N(c4ccc5c(c4)OCCO5)C3)n2)cc1", "note": "(stereo not given)", "values": [{"measurement": "IC50", "setting": "[5]", "value": "3.44 µM (active)"}]}
{"smiles": "CCOC(=O)C1=C(C)NC(=O)CC1c1cc2c(cc1[N+](=O)[O-])OCO2", "note": "(stereo not given)", "values": [{"measurement": "IC50", "setting": "[7]", "value": "100 µM (active)"}, {"measurement": "IC50", "setting": "[8]", "value": "> 50 µM (not active)"}, {"measurement": "EC50", "setting": "[9]", "value": "1.68 µM (active)"}]}
{"smiles": "COc1ccc(NC(=O)CN(C)C(=O)/C=C/c2cn(Cc3ccccc3)nc2-c2cccnc2)cc1", "values": [{"measurement": "IC50", "setting": "[10]", "value": "8.74 µM (active)"}]}
{"smiles": "Cc1ccc(NC(=O)/C=C/c2ccco2)nc1", "values": [{"measurement": "IC50", "setting": "[10]", "value": "11.7 µM (active)"}]}
{"smiles": "COc1ccc(N2CCN(C(=O)Cc3ccc(S(=O)(=O)N4CCOCC4)s3)CC2)cc1", "values": [{"measurement": "IC50", "setting": "[10]", "value": "6.08 µM (active)"}]}
{"smiles": "Cc1cccc(N2CCN(C(=S)Nc3ccc4nc(N5CCN(C)CC5)cc(C)c4c3)CC2)c1C", "values": [{"measurement": "EC50", "setting": "BJ [11]", "value": "1.33 µM (inconclusive)"}, {"measurement": "AC50", "setting": "[12]", "value": "5.45 µM (active)"}, {"measurement": "AC50", "setting": "[13]", "value": "6.83 µM (active)"}, {"measurement": "EC50", "setting": "BJ [14]", "value": "1.22 µM (inconclusive)"}, {"measurement": "EC50", "setting": "BJ [15]", "value": "5.6 µM (inconclusive)"}, {"measurement": "EC50", "setting": "[16]", "value": "2.46 µM (active)"}, {"measurement": "EC50", "setting": "BJ [17]", "value": "0.585 µM (active)"}]}
